Source: the OligoGym collection
Values joined by “and” are separate entries in the source; they are usually repeats but may differ in a detail not shown here. Identical values can stand only once. After the bases stand the sugars from the 5' end (letter, count) and the backbone: PS all phosphorothioate, else s phosphorothioate and o phosphodiester by linkage. Methylation of C is not given here. e = 2'-O-(2-methoxyethyl) (MOE); k = constrained ethyl (cEt); d = 2'-deoxy (DNA)

How the values were obtained:
SOD1 = details: ASO
MALAT1 = details: ASO, A431, 0.005 µM

Q: What does the source list for “AGTGTTTAATGTTTATC (sugars e2 k2 d8 k2 e3, PS)”?
A: target mRNA inhibition (SOD1; HepG2, 0.1875 µM): 46%; target mRNA inhibition (SOD1; HepG2, 0.75 µM): 74%; target mRNA inhibition (SOD1; HepG2, 3 µM): 84%; target mRNA inhibition (SOD1; HepG2, 5 µM): 88%; target mRNA inhibition (SOD1; HepG2, 12 µM): 81%

Q: Which results are given for “TTCTACAGCTAGCAGGA (sugars e2 k2 d8 k2 e3, PS)”?
A: target mRNA inhibition (SOD1; HepG2, 0.1875 µM): 18%; target mRNA inhibition (SOD1; HepG2, 0.75 µM): 48%; target mRNA inhibition (SOD1; HepG2, 3 µM): 66%; target mRNA inhibition (SOD1; HepG2, 4 µM): 74%; target mRNA inhibition (SOD1; HepG2, 12 µM): 86%

Q: “AATCTTCCAAGTGATCA (sugars e2 k2 d8 k2 e3, PS)” was tested. Which target mRNA inhibition (SOD1; HepG2, 5 µM) did it give?
A: 19%

Q: How did the target mRNA inhibition (SOD1; HepG2, 5 µM) turn out when “TAGCCTCATAATAAGTG (sugars e2 k2 d9 k2 e2, PS)” was run?
A: 27%

Q: “ACAGTGTTTAATGTTTA (sugars e3 k2 d7 k2 e3, linkages s1 o2 s9 o2 s2)” was tested. Which target mRNA inhibition (SOD1; A431, 0.12 µM) did it give?
A: 12%

Q: And the target mRNA inhibition (SOD1; A431, 0.6 µM)?
A: 26%

Q: And the target mRNA inhibition (SOD1; A431, 3 µM)?
A: 45%

Q: What about the target mRNA inhibition (SOD1; A431, 15 µM) of the same sequence?
A: 47%

Q: What about the target mRNA inhibition (SOD1; HepG2, 0.222 µM) of the same sequence?
A: 51%

Q: And the target mRNA inhibition (SOD1; HepG2, 0.667 µM)?
A: 70%

Q: And the target mRNA inhibition (SOD1; HepG2, 2 µM)?
A: 80%

Q: And the target mRNA inhibition (SOD1; HepG2, 6 µM)?
A: 74%

Q: How did the target mRNA inhibition (SOD1; HepG2, 3 µM) turn out when “TCTGGATAGAGGATTAA (sugars e3 k2 d7 k2 e3, PS)” was run?
A: 25%

Q: Which target mRNA inhibition (SOD1; HepG2, 5 µM) does the source give for “ATAATAAGTGCCATACA (sugars e2 k2 d8 k2 e3, PS)” here?
A: 27%

Q: “TCACTACAGGTACTTTA (sugars e2 k2 d8 k2 e3, PS)” was tested. Which target mRNA inhibition (SOD1; HepG2, 5 µM) did it give?
A: 27%

Q: With “AGTGCCATACAGGGTTT (sugars e2 k2 d8 k2 e3, PS)” as the sequence, how does the target mRNA inhibition (SOD1; HepG2, 5 µM) read?
A: 20%

Q: How did the target mRNA inhibition (SOD1; HepG2, 5 µM) turn out when “TCTCACTACAGGTACTT (sugars e2 k2 d8 k2 e3, PS)” was run?
A: 42%

Q: For “CCACTCTGGCCCCAAAC (sugars e3 k2 d7 k2 e3, PS)”, which target mRNA inhibition (SOD1; HepG2, 3 µM) is on record?
A: 17%

Q: “CTGGTTCCGAGGACTGCAAC (sugars e5 d10 e5, PS)” was tested. Which target mRNA inhibition (SOD1; HepG2, 4 µM) did it give?
A: 51%

Q: “GACAAGTTTAATACCCA (sugars e3 k2 d7 k2 e3, PS)” was tested. Which target mRNA inhibition (SOD1; HepG2, 3 µM) did it give?
A: 24%

Q: Which target mRNA inhibition (SOD1; HepG2, 3 µM) does the source give for “AGGATAACAGATGAGTT (sugars e3 k2 d7 k2 e3, PS)” here?
A: 45%

Q: With “TGATTTAAGTCTGGCAA (sugars e2 k2 d8 k2 e3, PS)” as the sequence, how does the target mRNA inhibition (SOD1; HepG2, 5 µM) read?
A: 52%

Q: How did the target mRNA inhibition (SOD1; HepG2, 3 µM) turn out when “CAGTGTTTAATGTTTAT (sugars e3 k2 d7 k2 e3, PS)” was run?
A: 54%

Q: Which target mRNA inhibition (SOD1; HepG2, 4 µM) does the source give for “AGGAGACTACGACGCAAACC (sugars e5 d10 e5, PS)” here?
A: 35%

Q: How did the target mRNA inhibition (SOD1; HepG2, 4 µM) turn out when “CTGCAGGAGACTACGACGCA (sugars e5 d10 e5, PS)” was run?
A: 36%

Q: Which target mRNA inhibition (SOD1; HepG2, 3 µM) does the source give for “TCGCCCTTCAGCACGCA (sugars e3 k2 d7 k2 e3, PS)” here?
A: 31%

Q: “GTCACACAATTACACTT (sugars e2 k2 d8 k2 e3, PS)” was tested. Which target mRNA inhibition (SOD1; HepG2, 5 µM) did it give?
A: 28%

Q: How did the target mRNA inhibition (SOD1; HepG2, 3 µM) turn out when “CCTTCTGCTCGAAATTG (sugars e3 k2 d7 k2 e3, PS)” was run?
A: 16%

Q: How did the target mRNA inhibition (SOD1; HepG2, 4 µM) turn out when “GTCGCCCTTCAGCACGC (sugars e2 k2 d8 k2 e3, PS)” was run?
A: 60%

Q: With “TGCCCTGCACTGGGCCGTCG (sugars e5 d10 e5, PS)” as the sequence, how does the target mRNA inhibition (SOD1; HepG2, 4 µM) read?
A: 38%

Q: Which target mRNA inhibition (SOD1; HepG2, 5 µM) does the source give for “ATCAGTTTCTCACTACAGGT (sugars e5 d10 e5, PS)” here?
A: 22%

Q: “GCTTCCCCACACCTTCACTG (sugars e5 d10 e5, linkages s1 o3 s11 o3 s1)” was tested. Which target mRNA inhibition (SOD1; A431, 0.12 µM) did it give?
A: 0%

Q: And the target mRNA inhibition (SOD1; A431, 0.6 µM)?
A: 0%

Q: What about the target mRNA inhibition (SOD1; A431, 3 µM) of the same sequence?
A: 11%

Q: And the target mRNA inhibition (SOD1; A431, 15 µM)?
A: 0%

Q: And the target mRNA inhibition (SOD1; HepG2, 0.222 µM)?
A: 14%

Q: What about the target mRNA inhibition (SOD1; HepG2, 0.667 µM) of the same sequence?
A: 32%

Q: And the target mRNA inhibition (SOD1; HepG2, 2 µM)?
A: 79%

Q: What about the target mRNA inhibition (SOD1; HepG2, 6 µM) of the same sequence?
A: 55%

Q: Which target mRNA inhibition (SOD1; HepG2, 5 µM) does the source give for “AAATCTTCCAAGTGATC (sugars e2 k2 d8 k2 e3, PS)” here?
A: 46%

Q: Which target mRNA inhibition (SOD1; HepG2, 3 µM) does the source give for “AGACACATCGGCCACAC (sugars e3 k2 d7 k2 e3, PS)” here?
A: 21%

Q: With “CCTGCACTGGTACAGCC (sugars e3 k2 d7 k2 e3, PS)” as the sequence, how does the target mRNA inhibition (SOD1; HepG2, 3 µM) read?
A: 17%

Q: “CGATCCCAATTACACCA (sugars e2 k2 d9 k2 e2, PS)” was tested. Which target mRNA inhibition (SOD1; HepG2, 4 µM) did it give?
A: 59%

Q: With “TTTATTCACAGGCTTGA (sugars e3 k2 d7 k2 e3, PS)” as the sequence, how does the target mRNA inhibition (SOD1; HepG2, 3 µM) read?
A: 29%

Q: How did the target mRNA inhibition (MALAT1) turn out when ACATGCAATACTGCAG (sugars k3 d10 k3, PS) was run?
A: 3%

Q: For TCAAGGATGTATATAG (sugars k3 d10 k3, PS), which target mRNA inhibition (MALAT1) is on record?
A: 6%

Q: For CTAAATCATTGGGAGT (sugars k3 d10 k3, PS), which target mRNA inhibition (MALAT1) is on record?
A: 48%

Q: How did the target mRNA inhibition (MALAT1) turn out when TCTATAGTCTGAAGAA (sugars k3 d10 k3, PS) was run?
A: 26%

Q: With CTTTACACCTCAGTAC (sugars k3 d10 k3, PS) as the sequence, how does the target mRNA inhibition (MALAT1) read?
A: 38%

Q: For TCCTCAATCCACTTGA (sugars k3 d10 k3, PS), which target mRNA inhibition (MALAT1) is on record?
A: 44%

Q: AAACGAATTCAGGGTG (sugars k3 d10 k3, PS) was tested. Which target mRNA inhibition (MALAT1) did it give?
A: 23%

Q: Which target mRNA inhibition (MALAT1) does the source give for TTCCTAGCTTCACCAC (sugars k3 d10 k3, PS) here?
A: 36%

Q: How did the target mRNA inhibition (MALAT1) turn out when CATTCTAATAGCAGCG (sugars k3 d10 k3, PS) was run?
A: 51% and 68%

Q: Which target mRNA inhibition (MALAT1) does the source give for TAATCTCCCACCTGTC (sugars k3 d10 k3, PS) here?
A: 7%

Q: For TCAGCCTTTATCACTC (sugars k3 d10 k3, PS), which target mRNA inhibition (MALAT1) is on record?
A: 13%

Q: Which target mRNA inhibition (MALAT1) does the source give for TTCCGCCGCCTCTTAA (sugars k3 d10 k3, PS) here?
A: 22%

Q: With GATCCAAGCTACTGGC (sugars k3 d10 k3, PS) as the sequence, how does the target mRNA inhibition (MALAT1) read?
A: 18%
